According to publication PMC5662925, “Selective Targeting of Bromodomains of the Bromodomain-PHD Fingers Family Impairs Osteoclast Differentiation” (ACS Chemical Biology, 2017):
Each block holds one compound with its values, some of them ahead of it.

Columns and labels:
[1] = target: BRD4(1) (Homo sapiens, UniProt O60885); test: Temperature shift assay (ΔTm); format: binding; conditions: 10 µM compound
[2] = target: T1, BRPF2 (Homo sapiens, UniProt O95696); test: Isothermal titration calorimetry (ITC); format: binding; conditions: ITC data
T1 construct: All recombinant bromodomains were expressed as described in Filippakopoulos et al; made in house
T1 sequence (O95696 562-666 limits assumed): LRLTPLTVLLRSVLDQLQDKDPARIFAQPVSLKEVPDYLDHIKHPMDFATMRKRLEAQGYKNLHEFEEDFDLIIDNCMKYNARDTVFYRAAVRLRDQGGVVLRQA

[3] = test system: primary murine bone marrow cells differentiated with RANKL; test: Murine osteoclast differentiation, TRAP stain; format: cell-based, mouse
From the text: Epigenetic mechanisms play an important role in patterning and differentiation processes, and BRPF and its associated HATs have been particularly associated with differentiation of hematopoietic cells. Given our interest in bone biology, and the hematopoietic origin of the osteoclast, we investigated the potential role of the targeted bromodomains in osteoclastogenesis in mouse and human cells. Bone marrow mononuclear cells were isolated from wild-type mice, cultivated for 5 days in the presence of CSF-1, and replated in the presence of RANKL for differentiation into osteoclasts,[28] either with DMSO as a control or with varying doses of the BRPF inhibitors. […] To understand the molecular basis for this observation, we investigated the expression of several osteoclast marker genes using qPCR. […] To further investigate other osteoclast-specific effects of the BRPF inhibitors on gene transcription, we profiled genome-wide expression with Illumina MouseWG-6 v2.0 Expression BeadChips at different time points.

[4] = test system: osteoclast marker genes (TRAP, CATK, CA2, NFATC1, OC-STAMP) in murine BMCs; test: qPCR of osteoclast marker genes in murine BMCs; format: cell-based, mouse; conditions: 10 ng/mL RANKL, 1 μM and 2 μM, 0-3 days
[5] = test system: NFATC1 protein level in murine BMCs; test: Western blot of NFATC1 in murine BMCs; format: cell-based, mouse; conditions: 10 ng/mL RANKL, 1 μM and 2 μM
From the text: Figure 5 BRPF1B binding partners and effect of BRPF bromodomain inhibition on gene transcription during mouse osteoclastogenesis. […] The color of the circle represents the absolute spectral counts observed for the prey proteins. The circle size indicates the quantitative enrichment of a prey across all baits tested while the estimated FDR for the interaction is shown as the color of the circle edge. (B) Inhibition of murine osteoclast differentiation by panBRPF bromodomain inhibition. […] Bar scale indicates 200 μm. […] Data were normalized to day 0 of RANKL treatment. […] LaminB1 was used as a loading control.
Murine osteoclast-like cells were PBS washed, homogenized and lysed in RIPA buffer (50 mM Tris-HCl, pH 7.4; 150 mM NaCl; 1% NP-40; 0.5% Na-deoxycholate; 0.1% SDS; 2 mM EDTA; 10 mM NaF) containing protease inhibitors (Pierce, according to manufacturer’s specifications) with a 1 mL syringe and a 23-gauge needle. After centrifugation at 15 000 rpm at 4 °C for 10 min, supernatants were frozen at −80 °C. Protein concentrations were assayed using a Pierce BCA Kit, and 30 μg of protein per lane was subjected on 10% SDS gel. […] Absorbance was measured at 440 nm.

[6] = test system: murine monocytic RAW246.7 cells; test: Proliferation / cell count of RAW cells; format: cell-based, mouse; conditions: 72 h treatment, 10 µM, n = 4, t-test p = 0.73
Description: Supplementary Figure 4: Inhibition of murine osteoclast differentiation. A) TRAP stain of primary murine bone marrow cells (BMCs) differentiated into osteoclasts for 3 days with RANKL plus either the treatment with DMSO or NIL57 at 1 µM. Bar scale indicates 200 µm. […]
treated bone marrow cells after 1, 2 and 3 days of differentiation as compared to bone marrow cells before RANKL treatment start. C.) Count of RAW cells after 72 h treatment […]
content of primary mouse BMCs treated for 0, 1, 2 and 3 days with either without or with 1

[7] = test system: human osteoclast-like cells on bone mineral substrate; test: Bone resorption, Osteosurface assay (hydroxyapatite); format: cell-based
From the text: Dentine pits were imaged with confocal microscopy.

[8] = test system: MMP9 secretion by human RANKL-induced osteoclasts; test: MMP9 ELISA of human osteoclast supernatant; format: cell-based; conditions: 1.25 μM, 7 days or 11 days
[9] = test system: RANKL-induced expression of Ppap2a and SphK1; test: Microarray genome-wide expression in murine BMCs; format: cell-based, mouse; conditions: 2 μM
Description: (A) Heat map of the top 25 significant differentially expressed genes between DMSO and OF-1-treated BMCs based on sorted average p-value for the time points 48 and 72 h. Red indicates higher; blue indicates lower expression. See also, Supporting Information Figures 3 and 4.
Murine bone marrow stem cells were differentiated into osteoclast-like cells as described above. Cells were PBS-washed and lysed in RLT-Buffer (including 2-Mercaptoethanol; Qiagen, UK), and RNA was isolated via RNeasy Plus Mini Kit (Quiagen, UK). After confirmation of RNA quality (RIN = 2 ± 0.1), cDNA synthesis of approximately 1000 ng of RNA with a High Capacity cDNA Reverse Transcription Kit (Applied Biosystems, UK) was carried out. A total of 500 ng/μL cDNA was subjected to MouseWG-6 v2.0 Expression BeadChips (Illumina) at the Department of Pathology, University of Cambridge. Microarray data are available in the ArrayExpress database (www.ebi.ac.uk/arrayexpress) under accession number E-MTAB-4155. Gene expression data underwent log2 transformation and quantile normalization. Genes were filtered based on their variation across the experiments, i.e., excluding genes with a standard deviation of expression lower than 0.1. For genes with multiple probes, only the highest variable probe was selected for further analysis. […]

[10] = test system: human osteoclast-like cells on dentine slices; test: Bone resorption on dentine slices; conditions: 1 μM
[11] = test system: human primary monocytes (PBMCs) differentiated with RANKL; test: Human osteoclast differentiation (TRAP-positive multinucleated cells)

ΔTm at 10 µM [1]: 2.1 °C | weaker potency for BRPF2 (vs BRPF1B) [2]: 5 fold
SMILES: COc1cc2c(cc1NS(=O)(=O)c1ccc(Br)cc1C)n(C)c(=O)n2C [OF-1]
number of multinucleated TRAP positive cells [3]: significant reductions | expression of osteoclast marker genes (qPCR) [4]: significant reductions | NFATC1 protein level [5]: strong down-regulation | Count of RAW cells vs DMSO [6]: no significant difference | pit formation on hydroxyapatite (Osteosurface assay) [7]: significant reduction | MMP9 secretion [8]: significant reductions | RANKL-induced expression of Ppap2a and SphK1 [9]: significantly down-regulated | resorption of dentine [10]: complete block | fusion into multinucleated osteoclast-like cells [11]: completely suppress

SMILES: COc1ccccc1C(=O)Nc1cc2c(cc1N1CCCC1)n(C)c(=O)n2C [PFI-4]
MMP9 secretion [8]: significant reductions
